Results reported in paper PMC7377239, “Cardiovascular Effects of Polychlorinated Biphenyls and Their Major Metabolites” (Environmental Health Perspectives, 2020).
Where two headings read alike, the source gives them in different places.

Key:
[1] = system: iCell cardiomyocytes (human iPSC-derived cardiomyocytes); experiment: High-content imaging of cytotoxicity and mitochondrial integrity in iPSC-CMs; type: cell-based; conditions: Homo sapiens; for viability at 0.01 µM / activity at 0.01 µM / viability at 0.1 µM / activity at 0.1 µM / viability at 1 µM / activity at 1 µM / viability at 10 µM / activity at 10 µM / viability at 100 µM / activity at 100 µM: Cardiomyocyte, 0.00 µM = 100.00; for viability at 0.1 µM / activity at 0.1 µM: 0.10 µM; for minimal effective concentration: iPSC-CM
How it was run: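 Human iPSC-derived cardiomyocytes were seeded on gelatin-coated 384-well plates at 5,000 cells per well and maintained for 12 d. Test chemicals were added as 10μL of 5× solutions to final concentrations of 0.01 to 100μM. Cells were stained with Hoechst 33342 and MitoTracker™ Orange, fixed in formaldehyde, and imaged by confocal high-content microscopy at 10× magnification.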

HUVECs = experiment: High-content imaging cytotoxicity in HUVECs, 24 h; type: cell-based, human; conditions: Homo sapiens, HUVEC, 24 h, HUVECs; for viability at 0.01 µM / activity at 0.01 µM / viability at 0.1 µM / activity at 0.1 µM / viability at 1 µM / activity at 1 µM / viability at 10 µM / activity at 10 µM / viability at 100 µM / activity at 100 µM: 0.00 µM = 100.00; for viability at 0.1 µM / activity at 0.1 µM: 0.10 µM; for minimal effective concentration: top concentration 100.00 µM
How it was run: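 HUVECs (passages 1–5) were plated at 750 cells/well without fibronectin, grown to a monolayer (3–5 d) and exposed to compounds for 24 h at 37°C, 5% CO2. Hoechst 33342, MitoTracker Orange and calcein AM staining was imaged at 10×; readouts were normalized to 0.5% DMSO vehicle and fit to a four-parameter logistic model.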

[2] = 24 hr, read-out: huvec.cyto.24hr
[3] = 24 hr, read-out: huvec.mito.24hr
[4] = 24 hr, read-out: huvec.mitoint.24hr
[5] = 24 hr, read-out: huvec.nma.24hr
[6] = 24 hrs, read-out: huvec.tc.24hrs

With `Oc1ccc(-c2cccc(Cl)c2)cc1Cl` [4-OH PCB11] as the compound, how does the viability at 0.01 µM ([1]; 1.5 h, read-out: cm.cam.90min) read?
Its viability at 0.01 µM is 94.9%.

And the activity at 0.01 µM ([1]; 1.5 h, read-out: cm.mii.90min)?
The activity at 0.01 µM was 115%.

What about the activity at 0.01 µM ([1]; 1.5 h, read-out: cm.mito.90min) of the same compound?
The activity at 0.01 µM was 94.7%.

And the viability at 0.01 µM ([1]; 1.5 h, read-out: cm.tc.90min)?
The viability at 0.01 µM was 94.7%.

And the viability at 0.1 µM ([1]; 1.5 h, read-out: cm.cam.90min)?
The viability at 0.1 µM was 95%.

What about the activity at 0.1 µM ([1]; 1.5 h, read-out: cm.mii.90min) of the same compound?
The activity at 0.1 µM was 108%.

And the activity at 0.1 µM ([1]; 1.5 h, read-out: cm.mito.90min)?
Its activity at 0.1 µM is 95%.

And the viability at 0.1 µM ([1]; 1.5 h, read-out: cm.tc.90min)?
Its viability at 0.1 µM is 95%.

And the viability at 1 µM ([1]; 1.5 h, read-out: cm.cam.90min)?
Its viability at 1 µM is 99.1%.

And the activity at 1 µM ([1]; 1.5 h, read-out: cm.mii.90min)?
Its activity at 1 µM is 113%.

What about the activity at 1 µM ([1]; 1.5 h, read-out: cm.mito.90min) of the same compound?
Its activity at 1 µM is 98.6%.

What about the viability at 1 µM ([1]; 1.5 h, read-out: cm.tc.90min) of the same compound?
The viability at 1 µM was 98.8%.

What about the viability at 10 µM ([1]; 1.5 h, read-out: cm.cam.90min) of the same compound?
Its viability at 10 µM is 106%.

And the activity at 10 µM ([1]; 1.5 h, read-out: cm.mii.90min)?
The activity at 10 µM was 93.6%.

And the activity at 10 µM ([1]; 1.5 h, read-out: cm.mito.90min)?
The activity at 10 µM was 106%.

And the viability at 10 µM ([1]; 1.5 h, read-out: cm.tc.90min)?
The viability at 10 µM was 106%.

And the viability at 100 µM ([1]; 1.5 h, read-out: cm.cam.90min)?
Its viability at 100 µM is 0.0234%.

What about the activity at 100 µM ([1]; 1.5 h, read-out: cm.mii.90min) of the same compound?
Its activity at 100 µM is 157%.

What about the activity at 100 µM ([1]; 1.5 h, read-out: cm.mito.90min) of the same compound?
The activity at 100 µM was 0.0462%.

And the viability at 100 µM ([1]; 1.5 h, read-out: cm.tc.90min)?
The viability at 100 µM was 0.09%.

And the viability at 0.01 µM ([1]; 24 h, read-out: cm.cam.24hrs)?
The viability at 0.01 µM was 90.8%.

What about the activity at 0.01 µM ([1]; 24 h, read-out: cm.mii.24hrs) of the same compound?
The activity at 0.01 µM was 101%.

What about the activity at 0.01 µM ([1]; 24 h, read-out: cm.mito.24hrs) of the same compound?
Its activity at 0.01 µM is 86.2%.

What about the viability at 0.01 µM ([1]; 24 h, read-out: cm.tc.24hrs) of the same compound?
The viability at 0.01 µM was 90.8%.

And the viability at 0.1 µM ([1]; 24 h, read-out: cm.cam.24hrs)?
The viability at 0.1 µM was 100%.

And the activity at 0.1 µM ([1]; 24 h, read-out: cm.mii.24hrs)?
Its activity at 0.1 µM is 111%.

What about the activity at 0.1 µM ([1]; 24 h, read-out: cm.mito.24hrs) of the same compound?
The activity at 0.1 µM was 97.6%.

What about the viability at 0.1 µM ([1]; 24 h, read-out: cm.tc.24hrs) of the same compound?
The viability at 0.1 µM was 99.9%.

What about the viability at 1 µM ([1]; 24 h, read-out: cm.cam.24hrs) of the same compound?
The viability at 1 µM was 98.4%.

And the activity at 1 µM ([1]; 24 h, read-out: cm.mii.24hrs)?
The activity at 1 µM was 100%.

What about the activity at 1 µM ([1]; 24 h, read-out: cm.mito.24hrs) of the same compound?
Its activity at 1 µM is 96.4%.

What about the viability at 1 µM ([1]; 24 h, read-out: cm.tc.24hrs) of the same compound?
The viability at 1 µM was 98.7%.

And the viability at 10 µM ([1]; 24 h, read-out: cm.cam.24hrs)?
Its viability at 10 µM is 93.1%.

And the activity at 10 µM ([1]; 24 h, read-out: cm.mii.24hrs)?
Its activity at 10 µM is 96.5%.

And the activity at 10 µM ([1]; 24 h, read-out: cm.mito.24hrs)?
Its activity at 10 µM is 90.8%.

And the viability at 10 µM ([1]; 24 h, read-out: cm.tc.24hrs)?
Its viability at 10 µM is 93.5%.

What about the viability at 100 µM ([1]; 24 h, read-out: cm.cam.24hrs) of the same compound?
Its viability at 100 µM is 0.0471%.

And the activity at 100 µM ([1]; 24 h, read-out: cm.mii.24hrs)?
Its activity at 100 µM is 1.84%.

And the activity at 100 µM ([1]; 24 h, read-out: cm.mito.24hrs)?
Its activity at 100 µM is 0.024%.

What about the viability at 100 µM ([1]; 24 h, read-out: cm.tc.24hrs) of the same compound?
The viability at 100 µM was 0.11%.

And the minimal effective concentration ([1]; 1.5 h, read-out: cm.cam.90min POD)?
Its minimal effective concentration is 27.7 µM.

And the minimal effective concentration ([1]; 1.5 h, read-out: cm.mii.90min POD)?
The minimal effective concentration was 32.7 µM.

What about the minimal effective concentration ([1]; 1.5 h, read-out: cm.mito.90min POD) of the same compound?
The minimal effective concentration was 40.1 µM.

And the minimal effective concentration ([1]; 1.5 h, read-out: cm.tc.90min POD)?
The minimal effective concentration was 36.2 µM.

What about the minimal effective concentration ([1]; 24 h, read-out: cm.cam.24hrs POD) of the same compound?
Its minimal effective concentration is 8.57 µM.

And the minimal effective concentration ([1]; 24 h, read-out: cm.mii.24hrs POD)?
Its minimal effective concentration is 43.2 µM.

And the minimal effective concentration ([1]; 24 h, read-out: cm.mito.24hrs POD)?
Its minimal effective concentration is 7.94 µM.

And the minimal effective concentration ([1]; 24 h, read-out: cm.tc.24hrs POD)?
The minimal effective concentration was 8.62 µM.

What about the viability at 0.01 µM (HUVECs; [2]) of the same compound?
The viability at 0.01 µM was 113%.

And the activity at 0.01 µM (HUVECs; [3])?
The activity at 0.01 µM was 112%.

What about the activity at 0.01 µM (HUVECs; [4]) of the same compound?
The activity at 0.01 µM was 86.8%.

What about the activity at 0.01 µM (HUVECs; [5]) of the same compound?
Its activity at 0.01 µM is 95.3%.

What about the viability at 0.1 µM (HUVECs; [2]) of the same compound?
The viability at 0.1 µM was 87.7%.

And the activity at 0.1 µM (HUVECs; [3])?
The activity at 0.1 µM was 86.9%.

What about the activity at 0.1 µM (HUVECs; [4]) of the same compound?
Its activity at 0.1 µM is 109%.

And the activity at 0.1 µM (HUVECs; [5])?
The activity at 0.1 µM was 105%.

And the viability at 1 µM (HUVECs; [2])?
Its viability at 1 µM is 97%.

And the activity at 1 µM (HUVECs; [3])?
The activity at 1 µM was 96.1%.

And the activity at 1 µM (HUVECs; [4])?
The activity at 1 µM was 101%.

What about the activity at 1 µM (HUVECs; [5]) of the same compound?
Its activity at 1 µM is 97.1%.

What about the viability at 10 µM (HUVECs; [2]) of the same compound?
The viability at 10 µM was 43.8%.

And the activity at 10 µM (HUVECs; [3])?
Its activity at 10 µM is 26.1%.

What about the activity at 10 µM (HUVECs; [4]) of the same compound?
The activity at 10 µM was 10.9%.

What about the activity at 10 µM (HUVECs; [5]) of the same compound?
Its activity at 10 µM is 69.2%.

And the viability at 100 µM (HUVECs; [2])?
Its viability at 100 µM is 34.6%.

And the activity at 100 µM (HUVECs; [3])?
The activity at 100 µM was 0.26%.

And the activity at 100 µM (HUVECs; [4])?
Its activity at 100 µM is 2.7%.

What about the activity at 100 µM (HUVECs; [5]) of the same compound?
The activity at 100 µM was 73.6%.

What about the minimal effective concentration (HUVECs; 24 hr, read-out: huvec.cyto.24hr POD) of the same compound?
Its minimal effective concentration is 1.37 µM.

And the minimal effective concentration (HUVECs; 24 hr, read-out: huvec.mito.24hr POD)?
Its minimal effective concentration is 1.2 µM.

What about the minimal effective concentration (HUVECs; 24 hr, read-out: huvec.mitoint.24hr POD) of the same compound?
Its minimal effective concentration is 5.43 µM.

And the minimal effective concentration (HUVECs; 24 hr, read-out: huvec.nma.24hr POD)?
Its minimal effective concentration is 0.99 µM.

What about the viability at 0.01 µM (HUVECs; [6]) of the same compound?
Its viability at 0.01 µM is 113%.

And the viability at 0.1 µM (HUVECs; [6])?
Its viability at 0.1 µM is 87.7%.

What about the viability at 1 µM (HUVECs; [6]) of the same compound?
The viability at 1 µM was 97%.

What about the viability at 10 µM (HUVECs; [6]) of the same compound?
Its viability at 10 µM is 44.1%.

And the viability at 100 µM (HUVECs; [6])?
Its viability at 100 µM is 36.5%.

And the minimal effective concentration (HUVECs; 24 hrs, read-out: huvec.tc.24hrs POD)?
The minimal effective concentration was 1.37 µM.
